Results reported in article PMC2225439, “Amyloid as a Depot for the Formulation of Long-Acting Drugs” (PLoS Biology, 2008).

Assays:
[1] = Thio T binding (amyloid fibril formation); type: physicochemical; set-up: key to Thio T Binding: b, binding; n, not binding; settings: 1 mg/ml in 5% D-mannitol, 0.01% sodium azide
Method: The kinetics of fibril formation in vitro is generally a slow process over several days or weeks, and can be monitored by the increase of fluorescence intensity of the cross-β-sheet–sensitive dye, Thio T [15]. Thio T fluorescence is thereby insignificant during the initial incubation period of amyloid aggregation due to the nonexistence of Thio T–sensitive β-sheet aggregates. After the initial phase, a time-dependent increase of fluorescence intensity is observed until a maximum intensity is reached, at which time maximal fibril formation has occurred. […] For the Thio T binding studies, all GnRH analogs were incubated at room temperature at a concentration of 1 mg/ml in 5% D-mannitol, conditions identical to the formulation used in the animal experiments. In addition, 0.01% sodium azide was added. The Thio T fluorescence was monitored daily for all analogs over a period of 21 d (Figure 1).
(§1) GnRH analogs were dissolved in a glass tube in 1 ml of 5% D-mannitol and 0.01% sodium azide at a concentration of 1 mg/ml. The GnRH analogs were then incubated at room temperature without stirring. The fibril formation was monitored by EM, CR, and time-resolved by Thio T binding studies. Three independent experiments were performed for each sample.
A 10-μl aliquot of peptide sample was diluted into 500 μl of water with 5% D-mannitol containing 0.01% (w/v) sodium azide. The solution was mixed with 10 μl of 1 mM Thio T prepared in the same solution. Fluorescence was measured immediately after addition of Thio T. The experiment was measured on a spectrofluorimeter (Photon Technology International) with excitation at 450 nm and emission at 482 nm. The fluorescence intensity at 482 nm was plotted against incubation time (day). A rectangular 10-mm quartz microcuvette was used. Three independent experiments were performed for each sample.

Congo red (CR) binding = type: physicochemical; set-up: key to Congo Red: b, binding; n, not binding; settings: analogs incubated for 30 d, 1 mg/ml in 5% D-mannitol, 0.01% sodium azide, room temperature; UV 300–700 nm and by eye; three independent experiments
Method: To confirm amyloid formation by GnRH analogs, CR binding was measured. CR, like Thio T, is a dye routinely used to detect β-sheet–rich assemblies. CR binding can be measured by the “red shift” change of its absorption maximum from 490 to 540 nm, by an increase of the dye's molar absorptivity, and in favorable cases by eye. All three types of measurements were performed with GnRH analogs incubated for 30 d. […] However, five short-acting GnRH analogs, i.e., S3, S4, S6, S10, and S11, bind CR, showing that some short-acting GnRH-analogs are able to form amyloids after prolonged incubation (see also below). In contrast to short-acting analogs, all long-acting analogs bind CR.
as §1
A 5-μl aliquot of peptide sample was mixed with 80 μl of PBS buffer containing 10% ethanol. Then 15 μl of a 100 μM CR solution (filtered through 0.2-μm filter) in PBS containing 10% ethanol was added. After mixing, UV was measured from 300–700 nm. For the measurement of the CR-only spectrum, 15 μl of CR solution with 85 μl of PBS containing 10% ethanol was prepared. As a control, a 5-μl aliquot of GnRH analog mixed with 95 μl of PBS containing 10% ethanol was measured. Three independent experiments were performed for each sample. In addition to the UV measurements, pictures of the cuvette containing the peptide sample and CR were taken to visually show the CR binding to the amyloids.

[2] = Electron microscopy of negative-stained samples; type: physicochemical; set-up: key to EM^8 / EM^30: fib, fibrils; nfib, no fibrils; settings: 1 mg/ml in 5% D-mannitol, room temperature, at least two independent experiments
Method: To formally determine the formation of amyloid fibrils by GnRH analogs and to characterize other possible assemblies present in the sample, EM was done on all of the GnRH analogs. Since the EM analysis is for a qualitative interpretation only, amyloid fibrils and other small aggregates might be observed under the electron microscope even if only a minority of the sample forms fibrils. Samples were studied after 8 and 30 d of incubation. […] The fibrils show a wide variety of morphologies, comprising helical ultrastructures with varying degrees of lateral association. Furthermore, the fibrils are composed of one or more filaments, resulting in overall diameters ranging from approximately 6 to 12 nm. No oligomers are observed for the long-acting compounds at day 8 or at day 30 (Figures 2 and S2).
as §1
A 5-μl aliquot of peptide sample was diluted into 50 μl of water to a peptide concentration of approximately 50 μM, spotted on a glow-discharged, carbon-coated Formvar grid (Electron Microscopy Sciences), incubated for 5 min, washed with distilled water, and then stained with 1% (w/v) aqueous uranyl formate solution. Uranyl formate solutions were filtered through 0.2-μm sterile syringe filters (Corning) before use. EM analysis was performed using a JEOL JEM-100CXII electron microscope at 80 kV with nominal magnifications between 36,000 and 72,000. Images were recorded digitally by using the SIS Megaview III imaging system. At least two independent experiments were carried out for each sample.

[3] = tested on: plasma luteinizing hormone (LH) levels; settings: duration of action class as listed in Table 1; castrated male rat assay; ref Tables S1 and S2; cited from earlier work
Description: Table 1 Biochemical and Biophysical Properties of Aggregates By GnRH-Analogs | column: Action || Supplement pbio.0060017.st001.doc, table 1: Table S1: Short acting GnRH analogs with their duration of action | column: Duration of action^b || Supplement pbio.0060017.st002.doc, table 1: Table S2: Long acting GnRH analogs with their duration of action | column: Duration of action^b || (+ 2 further places)

With “Ac-DNal-DCpa-Agl(Nic)-Ser-Aph(Ac)-DAph(Ac)-Leu-ILys-Pro-DAla-NH2 [L20]” the “Thio T Binding” value ([1]; room temperature without stirring, monitored daily over 21 d, fluorescence ex 450 nm / em 482 nm, three independent experiments) was “b”, the “Thio T binding (in words)” value ([1]; room temperature, 21 d) was “bind significantly more Thio T during the entire experiment” and the “Congo Red” value (Congo red (CR) binding) was “b”. The “EM^8” value ([2]; electron microscopy at day 8 of incubation) was “fib”, the “EM^30” value ([2]; electron microscopy at day 30 of incubation) was “fib” and the Action [3] was “intermediate”.
